The source of these data is PMC6236115, “The 9H-Fluoren Vinyl Ether Derivative SAM461 Inhibits Bacterial Luciferase Activity and Protects Artemia franciscana From Luminescent Vibriosis” (Frontiers in Cellular and Infection Microbiology, 2018).

The test deals with T1, Vibrio fischeri luciferase (VfLuc) (Aliivibrio fischeri, UniProt P19907).
T1 construct: gene luxA; commercial Vibrio fischeri luciferase (Sigma-Aldrich L8507), with FMN reductases; with luciferase beta subunit (LuxB)
T1 sequence (P19907 1-354): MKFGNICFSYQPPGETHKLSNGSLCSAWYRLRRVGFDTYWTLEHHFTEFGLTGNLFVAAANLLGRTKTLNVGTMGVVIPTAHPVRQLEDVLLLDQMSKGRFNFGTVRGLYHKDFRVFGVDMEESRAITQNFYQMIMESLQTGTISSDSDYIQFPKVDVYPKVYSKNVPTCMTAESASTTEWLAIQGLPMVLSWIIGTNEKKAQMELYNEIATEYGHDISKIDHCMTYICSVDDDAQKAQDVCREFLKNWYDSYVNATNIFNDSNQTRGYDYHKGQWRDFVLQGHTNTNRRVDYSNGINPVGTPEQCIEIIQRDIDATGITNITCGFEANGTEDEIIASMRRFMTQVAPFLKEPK
T1 sequence (P19908 1-326 partner): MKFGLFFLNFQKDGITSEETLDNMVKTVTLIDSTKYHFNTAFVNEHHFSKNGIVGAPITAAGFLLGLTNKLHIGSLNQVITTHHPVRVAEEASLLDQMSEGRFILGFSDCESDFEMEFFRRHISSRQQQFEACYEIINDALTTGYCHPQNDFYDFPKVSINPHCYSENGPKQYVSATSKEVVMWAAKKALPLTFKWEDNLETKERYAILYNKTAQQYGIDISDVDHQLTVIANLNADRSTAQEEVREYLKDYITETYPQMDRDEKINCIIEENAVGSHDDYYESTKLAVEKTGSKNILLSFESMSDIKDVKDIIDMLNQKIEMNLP
Kind of test: luminescence enzyme assay, coupled with FMN reductase, 12-point titration. The test is classed as biochemical.

In the case of `COC(=O)/C=C/OC1c2ccccc2-c2ccccc21` [SAM461, (E)-Methyl 3-((9H-fluoren-9-yl)oxy)acrylate], it took 191 µM to reach half-maximal inhibition (IC50).
